Test [1] concerns OT-Bea-4bp (DNA, aptamer) CGATCGGGTGTGGGTGGCGTAAAGGGAGCATCG
Put plainly: fluorescence quenching (FAM/BHQ1 beacon), single concentration. To be noted: 120 mM NaCl, 2 mM CaCl2; highest concentration tested 200 nM; no quenching.

Test [2] shares this test system. Nature of the test: fluorescence quenching titration (FAM/BHQ1 beacon). To be noted: 120 mM NaCl, 2 mM CaCl2; 20 mM Tris-HCl pH 8.5, 0.1% Tween 20, room temperature, 50 nM probe.
The test system of test [3] is OT-Bea-1bp (DNA, aptamer) TCGGGTGTGGGTGGCGTAAAGGGAGCA
Nature of the test: fluorescence quenching (FAM/BHQ1 beacon), single concentration. To be noted: 120 mM NaCl, 20 mM CaCl2; 20 mM Tris-HCl pH 7.5; 50 nM probe, 500 nM OTA; negligible fluorescence change.

In test [4] the test system is OT-Bea-2bp (DNA, aptamer) ATCGGGTGTGGGTGGCGTAAAGGGAGCAT
The description is as above. To be noted: 120 mM NaCl, 20 mM CaCl2; 20 mM Tris-HCl pH 7.5; 50 nM probe, 500 nM OTA; 37% quenching.

For test [5], the system named is OT-Bea-3bp (DNA, aptamer) GATCGGGTGTGGGTGGCGTAAAGGGAGCATC
Described as above. The following applies: 120 mM NaCl, 20 mM CaCl2; 20 mM Tris-HCl pH 7.5; 50 nM probe, 500 nM OTA; 41% quenching.

For test [6], the system named is OT-Bea-5bp (DNA, aptamer) GCGATCGGGTGTGGGTGGCGTAAAGGGAGCATCGC
The test is described as above. To be noted: 120 mM NaCl, 20 mM CaCl2; 20 mM Tris-HCl pH 7.5; 50 nM probe, 500 nM OTA; small signal change.

`C[C@H]1CCCC(=O)CCC/C=C/c2cc(O)cc(O)c2C(=O)O1`: the binding result in test [1] is given as “no”.

Regarding `C[C@@H]1Cc2c(Cl)cc(C(=O)N[C@@H](Cc3ccccc3)C(=O)O)c(O)c2C(=O)O1`, the Kd (as a rule, the concentration at which binding is half-saturated) in test [2] is 16 ± 2 nM. Further, the binding entry in test [3] is reported as “weak”; in test [4] it was “yes”; in test [5] it was “yes”; in test [6] it was “yes”.

Take `CCCC[C@@H](C)[C@@H](OC(=O)C[C@@H](CC(=O)O)C(=O)O)[C@H](C[C@@H](C)CCCCCC[C@@H](O)C[C@H](O)[C@H](C)N)OC(=O)C[C@@H](CC(=O)O)C(=O)O`: the binding result in test [1] is “no”.

Regarding `CCCC[C@@H](C)[C@@H](OC(=O)C[C@@H](CC(=O)O)C(=O)O)[C@H](C[C@@H](C)C[C@H](O)CCCC[C@@H](O)C[C@H](O)[C@H](C)N)OC(=O)C[C@@H](CC(=O)O)C(=O)O`, in test [1], the binding entry is given as “no”.

In the case of `C[C@@H]1Cc2ccc(C(=O)N[C@@H](Cc3ccccc3)C(=O)O)c(O)c2C(=O)O1`, the binding entry in test [1] is recorded as “no”.
